# How the values were obtained:
# p110α/p85α = p110α/p85α (Homo sapiens (Human), UniProt P42336); assay: PI3K α inhibition assay (TLC lipid kinase or HTRF); type: biochemical
# How it was run: (§1)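 IC50 from TLC lipid kinase assay (25 mM HEPES pH 7.4, 10 mM MgCl2, 100 μg/ml phosphatidylinositol, 10 or 100 μM γ-32P-ATP, 5 min RT, phosphorimager) at 10–12 two-fold dilutions, or HTRF (10 μM PIP2, 10 μM ATP, 1 h RT) measuring PIP3 by TR-FRET; 2% DMSO final.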
# p110γ = p110γ (Homo sapiens (Human), UniProt P48736); assay: PI3K γ inhibition assay (TLC lipid kinase or HTRF); type: biochemical
# How it was run: as §1
# p110δ/p85α = p110δ/p85α (Homo sapiens (Human), UniProt O00329); assay: PI3K δ inhibition assay (TLC lipid kinase or HTRF); type: biochemical
# How it was run: as §1
# Balb/c splenic B cells = assay: B cell activation and proliferation assay (Alamar Blue); type: cell-based, mouse; conditions: Mus musculus, B-cell
# How it was run: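 Purified Balb/c splenic B cells, 50,000/well, pretreated with compound 30 min (0.2% DMSO), then stimulated with 10 ug/ml LPS or 5 ug/ml anti-IgM F(ab′)2 plus 2 ng/ml IL4 (cocktail concentrations) for 72 h at 37 °C. Alamar Blue 5 h, fluorescence 560/590 nm; IC50/EC50 calculated.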
# p110β/p85α = p110β/p85α (Homo sapiens, UniProt P42338); assay: PI3K β inhibition assay (TLC lipid kinase or HTRF); type: biochemical; conditions: read-out: PI3K β IC50
# How it was run: as §1
# p110γ, sequence (P48736 whole entry): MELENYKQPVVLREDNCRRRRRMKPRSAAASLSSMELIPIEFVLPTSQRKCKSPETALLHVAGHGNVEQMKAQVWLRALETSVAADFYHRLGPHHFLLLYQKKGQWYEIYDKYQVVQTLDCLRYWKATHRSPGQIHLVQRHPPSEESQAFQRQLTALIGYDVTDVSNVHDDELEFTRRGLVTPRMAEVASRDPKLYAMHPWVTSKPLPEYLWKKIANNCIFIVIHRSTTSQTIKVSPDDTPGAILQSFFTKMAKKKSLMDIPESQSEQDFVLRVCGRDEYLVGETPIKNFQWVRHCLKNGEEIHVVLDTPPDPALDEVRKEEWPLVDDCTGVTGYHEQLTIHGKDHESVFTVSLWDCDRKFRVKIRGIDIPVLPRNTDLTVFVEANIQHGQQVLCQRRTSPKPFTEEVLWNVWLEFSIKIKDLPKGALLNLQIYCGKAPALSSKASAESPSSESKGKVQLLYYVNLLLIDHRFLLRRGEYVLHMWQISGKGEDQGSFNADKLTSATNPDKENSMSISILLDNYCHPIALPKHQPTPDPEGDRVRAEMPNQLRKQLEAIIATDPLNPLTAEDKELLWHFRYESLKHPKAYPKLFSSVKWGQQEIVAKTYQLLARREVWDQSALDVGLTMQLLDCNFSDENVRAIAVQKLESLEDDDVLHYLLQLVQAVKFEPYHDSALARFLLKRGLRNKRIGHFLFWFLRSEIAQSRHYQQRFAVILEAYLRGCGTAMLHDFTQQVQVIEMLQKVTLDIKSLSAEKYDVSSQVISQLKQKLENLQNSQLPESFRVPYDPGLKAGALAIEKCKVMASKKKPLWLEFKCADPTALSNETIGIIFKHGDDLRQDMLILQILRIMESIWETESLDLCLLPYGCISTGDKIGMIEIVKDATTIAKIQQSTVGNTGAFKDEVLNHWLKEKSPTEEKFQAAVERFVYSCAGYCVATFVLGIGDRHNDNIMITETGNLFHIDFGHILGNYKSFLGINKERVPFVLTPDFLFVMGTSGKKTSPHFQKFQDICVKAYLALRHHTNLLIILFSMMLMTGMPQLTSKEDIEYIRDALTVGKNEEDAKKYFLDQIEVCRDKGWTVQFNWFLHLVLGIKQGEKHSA
# p110β/p85α, sequence (P42338 whole entry, looked up): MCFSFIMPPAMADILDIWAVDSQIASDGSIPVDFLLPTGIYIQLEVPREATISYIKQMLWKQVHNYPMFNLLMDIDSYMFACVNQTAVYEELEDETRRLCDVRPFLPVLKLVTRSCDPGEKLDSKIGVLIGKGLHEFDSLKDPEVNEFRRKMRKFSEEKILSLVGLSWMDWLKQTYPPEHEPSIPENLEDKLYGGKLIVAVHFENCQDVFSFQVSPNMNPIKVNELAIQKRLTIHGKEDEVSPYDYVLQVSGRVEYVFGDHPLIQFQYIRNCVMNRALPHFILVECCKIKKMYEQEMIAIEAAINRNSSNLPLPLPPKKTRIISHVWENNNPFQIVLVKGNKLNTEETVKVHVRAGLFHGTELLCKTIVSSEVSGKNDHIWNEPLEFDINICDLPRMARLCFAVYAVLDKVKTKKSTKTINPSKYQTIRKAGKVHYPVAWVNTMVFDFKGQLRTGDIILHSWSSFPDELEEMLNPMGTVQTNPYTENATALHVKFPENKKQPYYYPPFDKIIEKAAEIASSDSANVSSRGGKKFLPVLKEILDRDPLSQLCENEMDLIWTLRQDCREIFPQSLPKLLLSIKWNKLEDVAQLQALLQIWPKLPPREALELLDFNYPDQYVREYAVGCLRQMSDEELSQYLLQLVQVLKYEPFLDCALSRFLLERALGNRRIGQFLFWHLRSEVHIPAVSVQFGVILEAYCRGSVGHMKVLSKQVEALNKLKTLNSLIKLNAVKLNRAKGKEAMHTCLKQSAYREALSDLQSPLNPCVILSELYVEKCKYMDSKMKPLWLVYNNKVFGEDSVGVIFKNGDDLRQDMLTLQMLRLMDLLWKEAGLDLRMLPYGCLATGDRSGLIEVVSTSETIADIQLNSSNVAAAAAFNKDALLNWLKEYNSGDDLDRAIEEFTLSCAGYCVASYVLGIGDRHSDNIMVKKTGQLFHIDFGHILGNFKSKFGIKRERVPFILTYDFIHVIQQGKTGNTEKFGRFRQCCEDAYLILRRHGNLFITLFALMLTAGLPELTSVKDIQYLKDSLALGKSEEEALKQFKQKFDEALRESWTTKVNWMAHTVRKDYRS
# p110α/p85α, sequence (P42336 whole entry): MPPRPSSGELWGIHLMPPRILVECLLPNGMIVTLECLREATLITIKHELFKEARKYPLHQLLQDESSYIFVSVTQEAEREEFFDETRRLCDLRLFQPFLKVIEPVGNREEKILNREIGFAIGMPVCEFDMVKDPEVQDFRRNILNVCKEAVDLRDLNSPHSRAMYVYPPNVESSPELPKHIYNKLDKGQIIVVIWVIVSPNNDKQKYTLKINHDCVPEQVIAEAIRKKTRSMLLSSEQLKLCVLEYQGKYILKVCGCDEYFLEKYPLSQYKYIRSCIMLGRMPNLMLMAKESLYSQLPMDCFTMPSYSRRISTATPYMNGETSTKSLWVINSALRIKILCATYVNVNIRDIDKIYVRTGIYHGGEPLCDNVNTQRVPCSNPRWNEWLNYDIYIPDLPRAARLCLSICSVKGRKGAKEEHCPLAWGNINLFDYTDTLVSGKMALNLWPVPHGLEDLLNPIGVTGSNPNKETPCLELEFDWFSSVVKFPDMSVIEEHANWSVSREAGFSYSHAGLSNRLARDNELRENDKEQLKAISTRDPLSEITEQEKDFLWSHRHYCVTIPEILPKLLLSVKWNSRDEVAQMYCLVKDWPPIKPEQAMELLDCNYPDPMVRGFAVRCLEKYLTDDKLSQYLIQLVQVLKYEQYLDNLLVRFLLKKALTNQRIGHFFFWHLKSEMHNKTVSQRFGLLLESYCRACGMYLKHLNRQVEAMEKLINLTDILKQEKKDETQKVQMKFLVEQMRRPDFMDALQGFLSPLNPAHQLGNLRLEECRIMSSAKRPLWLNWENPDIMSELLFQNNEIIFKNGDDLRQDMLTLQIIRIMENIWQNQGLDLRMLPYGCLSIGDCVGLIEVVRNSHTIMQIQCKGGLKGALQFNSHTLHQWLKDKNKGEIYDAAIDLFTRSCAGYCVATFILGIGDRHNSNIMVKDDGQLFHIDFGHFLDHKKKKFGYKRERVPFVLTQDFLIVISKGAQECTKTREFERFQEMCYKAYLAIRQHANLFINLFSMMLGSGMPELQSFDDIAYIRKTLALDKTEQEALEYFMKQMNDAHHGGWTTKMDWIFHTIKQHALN
# p110α/p85α, sequence (P27986 whole entry partner): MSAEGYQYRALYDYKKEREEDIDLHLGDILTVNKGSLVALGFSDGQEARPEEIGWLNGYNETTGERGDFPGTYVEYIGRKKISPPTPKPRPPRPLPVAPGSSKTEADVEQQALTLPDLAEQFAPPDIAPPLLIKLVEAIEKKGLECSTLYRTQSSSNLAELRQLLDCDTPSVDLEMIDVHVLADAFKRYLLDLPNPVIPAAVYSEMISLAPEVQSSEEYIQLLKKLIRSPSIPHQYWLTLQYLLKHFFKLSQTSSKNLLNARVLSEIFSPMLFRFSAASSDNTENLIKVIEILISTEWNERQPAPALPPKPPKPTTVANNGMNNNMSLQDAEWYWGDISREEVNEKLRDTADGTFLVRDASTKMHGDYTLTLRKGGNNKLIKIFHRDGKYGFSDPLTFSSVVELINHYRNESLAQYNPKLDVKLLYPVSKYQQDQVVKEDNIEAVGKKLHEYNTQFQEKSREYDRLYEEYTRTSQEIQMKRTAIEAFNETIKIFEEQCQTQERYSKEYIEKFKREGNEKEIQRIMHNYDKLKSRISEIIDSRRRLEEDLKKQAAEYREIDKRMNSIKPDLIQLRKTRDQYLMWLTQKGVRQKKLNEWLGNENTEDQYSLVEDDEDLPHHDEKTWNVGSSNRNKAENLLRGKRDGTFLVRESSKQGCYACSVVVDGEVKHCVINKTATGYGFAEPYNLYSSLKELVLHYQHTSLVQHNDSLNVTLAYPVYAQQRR
# p110δ/p85α, sequence (O00329 whole entry): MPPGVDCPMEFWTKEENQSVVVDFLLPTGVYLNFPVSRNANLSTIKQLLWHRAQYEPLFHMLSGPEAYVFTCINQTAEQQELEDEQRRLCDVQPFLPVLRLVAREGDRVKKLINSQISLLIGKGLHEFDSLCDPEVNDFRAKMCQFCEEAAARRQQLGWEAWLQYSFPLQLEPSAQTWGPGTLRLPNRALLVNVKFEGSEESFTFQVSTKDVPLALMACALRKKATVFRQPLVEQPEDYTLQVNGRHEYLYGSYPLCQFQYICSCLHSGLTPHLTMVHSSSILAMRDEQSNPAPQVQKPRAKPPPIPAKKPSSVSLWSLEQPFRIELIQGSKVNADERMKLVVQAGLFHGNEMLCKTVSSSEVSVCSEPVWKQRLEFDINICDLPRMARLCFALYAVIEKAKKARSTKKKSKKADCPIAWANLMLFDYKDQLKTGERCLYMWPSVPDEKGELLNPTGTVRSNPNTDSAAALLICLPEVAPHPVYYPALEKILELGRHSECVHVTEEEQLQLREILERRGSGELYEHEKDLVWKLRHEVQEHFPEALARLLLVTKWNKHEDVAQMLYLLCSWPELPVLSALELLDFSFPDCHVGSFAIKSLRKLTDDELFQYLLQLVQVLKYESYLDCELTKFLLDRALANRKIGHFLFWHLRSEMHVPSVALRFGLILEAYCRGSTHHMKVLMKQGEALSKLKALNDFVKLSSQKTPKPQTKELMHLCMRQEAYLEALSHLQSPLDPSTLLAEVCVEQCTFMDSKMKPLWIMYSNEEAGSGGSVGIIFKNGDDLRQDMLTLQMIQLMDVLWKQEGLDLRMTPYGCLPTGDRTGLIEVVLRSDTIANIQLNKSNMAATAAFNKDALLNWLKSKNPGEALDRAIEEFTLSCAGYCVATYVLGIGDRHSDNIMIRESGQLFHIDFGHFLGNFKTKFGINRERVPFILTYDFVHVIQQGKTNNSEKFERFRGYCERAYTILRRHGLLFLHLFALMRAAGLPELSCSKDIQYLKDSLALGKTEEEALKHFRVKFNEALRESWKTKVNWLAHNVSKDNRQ
# p110δ/p85α, sequence (P27986 whole entry partner): as the sequence (P27986 whole entry partner) above
SMILES,IC50 (p110α/p85α) [nM],IC50 (p110γ) [nM],IC50 (p110δ/p85α) [nM],EC50 (Balb/c splenic B cells) [nM],IC50 (p110β/p85α) [nM]
Nc1ncc2cc(-c3nn(Cc4cc5ccccc5nc4-c4ccccc4F)c4ncnc(N)c34)ccc2n1 [Compound 135],100 to 1000,< 100,< 100,< 100,> 1000
Nc1ccc2cc(-c3nn(Cc4cc5ccccc5nc4-c4ccccc4F)c4ncnc(N)c34)ccc2n1 [Compound 136],> 1000,< 100,< 100,100 to 1000,> 1000
Nc1nc2cc(-c3nn(Cc4cc5ccccc5nc4-c4ccccc4F)c4ncnc(N)c34)ccc2o1 [Compound 137],> 1000,< 100,< 100,100 to 1000,> 1000
Nc1ncnc2ccc(-c3nn(Cc4cc5ccccc5nc4-c4ccccc4F)c4ncnc(N)c34)cc12 [Compound 138],> 1000,< 100,< 100,100 to 1000,> 1000
Nc1ncc2cc(-c3nn(Cc4cc5ccccc5nc4N4CCOCC4)c4ncnc(N)c34)ccc2n1 [Compound 139],< 100,< 100,< 100,< 100,< 100
Nc1ccc2cc(-c3nn(Cc4cc5ccccc5nc4N4CCOCC4)c4ncnc(N)c34)ccc2n1 [Compound 140],< 100,< 100,< 100,< 100,100 to 1000
Nc1nc2cc(-c3nn(Cc4cc5ccccc5nc4N4CCOCC4)c4ncnc(N)c34)ccc2o1 [Compound 141],100 to 1000,< 100,< 100,< 100,> 1000
Nc1ncnc2ccc(-c3nn(Cc4cc5ccccc5nc4N4CCOCC4)c4ncnc(N)c34)cc12 [Compound 142],100 to 1000,< 100,< 100,< 100,> 1000
Nc1ncc2cc(-c3nn(Cc4cc5ccccc5nc4-c4ccccc4)c4ncnc(N)c34)ccc2n1 [Compound 143],100 to 1000,< 100,< 100,< 100,> 1000
Nc1ccc2cc(-c3nn(Cc4cc5ccccc5nc4-c4ccccc4)c4ncnc(N)c34)ccc2n1 [Compound 144],100 to 1000,< 100,< 100,< 100,> 1000
Nc1nc2cc(-c3nn(Cc4cc5ccccc5nc4-c4ccccc4)c4ncnc(N)c34)ccc2o1 [Compound 145],> 1000,< 100,< 100,< 100,> 1000
Nc1ncnc2ccc(-c3nn(Cc4cc5ccccc5nc4-c4ccccc4)c4ncnc(N)c34)cc12 [Compound 146],> 1000,< 100,< 100,100 to 1000,> 1000
Nc1nc2cc(-c3nn(Cc4cc5ccccc5nc4-c4ccccc4F)c4ncnc(N)c34)ccc2[nH]1 [Compound 152],100 to 1000,< 100,< 100,100 to 1000,> 1000
Nc1nc2cc(-c3nn(Cc4cc5ccccc5nc4N4CCCC4)c4ncnc(N)c34)ccc2[nH]1 [Compound 153],< 100,< 100,< 100,100 to 1000,100 to 1000
CC(C)Oc1nc2ccccc2cc1Cn1nc(-c2cc(O)cc(F)c2)c2c(N)ncnc21 [Compound 156],> 1000,100 to 1000,< 100,100 to 1000,> 1000
CC(=O)Nc1nc2ccc(-c3nn(Cc4cc5ccccc5nc4OC(C)C)c4ncnc(N)c34)cc2s1 [Compound 157],> 1000,> 1000,100 to 1000,> 1000,> 1000
Nc1ncc(-c2nn(Cc3cc4ccccc4nc3-c3ccccc3F)c3nccc(N)c23)cn1 [Compound 158],> 1000,> 1000,> 1000,> 1000,> 1000
CC(C)Oc1nc2ccccc2cc1Cn1nc(-c2ccc3nc(N)sc3c2)c2c(N)ncnc21 [Compound 159],100 to 1000,< 100,< 100,> 1000,> 1000
Nc1ncnc2c1c(-c1cc(O)cc(F)c1)nn2Cc1cc2ccccc2nc1CCN1CCCC1 [Compound 165],> 1000,> 1000,< 100,< 100,100 to 1000
CC(=O)Nc1nc2ccc(-c3nn(Cc4cc5ccccc5nc4CCN4CCCC4)c4ncnc(N)c34)cc2s1 [Compound 166],100 to 1000,100 to 1000,< 100,< 100,> 1000

# — patent US9790228B2, “Heterocyclic kinase inhibitors” (Intellikine LLC, priority 2008, dated 2017)
